The results in this text go back to patent publication US7320890B2, “Soluble steroidal peptides for nucleic acid delivery” (University of Utah Research Foundation, priority 2001, dated 2008).

The test system of data set [1] is CT-26 colon carcinoma cell lines. In words: In vitro transfection, luciferase activity. The data set is classed as cell-based. The settings on record: CT-26 cells, controls without carrier conjugate or without plasmid. On the procedure:
SSP/pLuc and SSP/p2CMVmIL-12 complexes formulated at various N/P ratios in 5% (w/v) glucose were evaluated for their transfection efficiency in CT-26 colon carcinoma cell lines. In the case of luciferase gene controls, cells were lysed after transfection and the relative light units (RLU) and total protein concentration were determined. […] The transfection efficiency increased with the increase in N/P ratios but diminished slightly with ratios 50/1 and above which could possibly be due to cytotoxicity towards CT-26 cells. On visual inspection under light microscope some granulation of cells was found, and cytotoxicity tests indicate that above N/P ratios 50/1 the cell viability is reduced by about 80%, which would account for lower gene expression.
In case of pLuc, CT-26 cells were seeded in 12-well tissue culture plates at 1×10^5 cells per/well in 10% FBS containing RPMI 1640 media. Cells achieved 70% confluency within 24 hours, after which they were transfected with SSP/pDNA complexes prepared at different N/P ratios ranging from 5/1 to 50/1 as described above. […] Luciferase activity was measured in terms of relative light units (RLU) using 96 well plate Luminometer (Dynex Technologies Inc, Chantilly, Va.). The luciferase activity was monitored and integrated over a period of 30 secs. […]

The conditions of data set [2]: mouse, CT-26 colon adeno-carcinoma cells.
Protocol: (§1) Cytotoxicity of SSP/p2CMVmIL-12 complexes prepared at different N/P ratios were assessed using an MTT assay. CT-26 colon adeno-carcinoma cells were grown and maintained in RPMI 1640 medium (GIBCO-BRL, Gaithersburg, Md.), which was supplemented with 10% fetal bovine serum (FBS), 100 U/ml penicillin, 100 U/ml streptomycin and 50 μg/ml gentamycin (all from Gibco-BRL, Gaithersburg, Md.) at 37° C. and humidified 5% CO2.
(§2) Briefly, CT-26 cell lines were seeded in 96 well plates at 4000 cells/well and incubated for 24 hours. After checking the cell confluency, which was over 80%, SSP/p2CMVmIL-12 complexes prepared at N/P ratios ranging from 5/1 to 100/1 were added to the cells at a dose of 0.15 μg pmIL-12/well. Following 48 hrs of incubation, 25 μl of 5 mg/ml 3-[4,5-dimethylthiazol-2-yl]-2,5-diphenyltetrazolium bromide (MTT, Sigma Chemical Co., St. Louis, Mo.) stock solution in phosphate buffered saline (PBS, Gibco-BRL) was poured into each well reaching a final concentration of 0.5 mg/ml MTT. The plate was then incubated at 37° C. in 5% CO2 for 4 hrs. The medium was removed and 150 μl of dimethyl sulfoxide (DMSO, Aldrich) was added to dissolve the formazan crystals. The plate was read spectrophotometrically at 570 nm in an ELISA plate reader. The relative cell viability was calculated as [Abs]sample/[Abs]control×100. […]
In data set [3] the test system is plasmid DNA. In words: Condensation of plasmid DNA (gel electrophoresis). The data set is classed as physicochemical. The settings on record: 4.5% (w/v) glucose, phosphate buffer pH 8.0. The protocol: Various formulations of SSP/p2CMVmIL-12 were prepared as follows: 100 μL aliquots of SSP at various concentrations and pDNA (0.2 mg/ml) were prepared in 4.5% (w/v) glucose to bring the osmolality to 285-295 mOsm, and 1M phosphate buffer was used to bring the pH to 8.0 of both aliquots. SSP/pDNA complexes at various N/P ratios ranging from 0.5/1 (N/P) to 50/1 (N/P) were prepared by rapidly mixing contents of SSP aliquot in pDNA aliquots using a pipettor. N/P ratio was calculated by taking into account 3 nitrogens for each arginine in SSP, thereby resulting in 18 nitrogens for each SSP molecule. The SSP/pDNA complexes were incubated for 15 minutes at room temperature before electrophoresis.

The subject of data set [4] is CT-26 colon adeno-carcinoma cells. In words: Cytotoxicity MTT assay. The settings on record: SSP alone, amounts equivalent to those used in N/P ratios 20/1. (Formazan colour is commonly taken as a measure of viable cells.)
Protocol: as §1, §2
Data set [5] has as its system CT-26 cells. Nature of the data set: Membrane permeabilization study (ethidium bromide staining, flow cytometry). Type of data set: cell-based. The settings on record: for levels of staining: pH 7.4; for cells stained (ethidium bromide fluorescence): 10 μM SSP. The protocol:
Membrane permeabilization studies were performed to find out whether SSP was able to form pores through plasma membranes and whether this phenomenon had any pH dependence or not. SSP prepared according to Example 1 was used at micromolar concentrations on cells preincubated with ethidium bromide, which intercalates between the strands of dsDNA and causes it to fluoresce. Ethidium bromide on its own is a poor membrane permeant, however, if the membranes are permeabilized, it would rapidly cross the cytoplasm, accumulate in the nucleus, and bind to the cellular DNA. Its fluorescent property would allow us to thus find the extent to which permeabilization via SSP occurred.
The membrane permeabilization activity of SSP was determined using flow cytometry. CT-26 cells were grown overnight and at 70-80% confluency were trypsinized and centrifuged. Cells were washed several times in 1×PBS (pH 7.4) and eventually resuspended in it to make cell suspensions of 1×10^6 cells/ml. One microliter of ethidium bromide (10 mg/ml) was mixed in 0.5 ml of cell suspension aliquots and stored at 4° C. 15 minutes before use. The pH of cell suspensions was adjusted to values 5,6,7, or 8 using either 1N NaOH or 1N HCl solutions 5 minutes before starting the experiment. SSP was finally used to permeabilize the membranes at the same final concentration for pH studies or at different concentrations at pH 7.4. Temperature effects at 4° C. and 37° C. were also studied to find any temperature dependent differences in permeabilization. After 5 and 15 minutes incubation, the cell fluorescence intensity was measured using FACScan Analyzer (Becton Dickinson, Sunnyvale, Calif.), which has a single 15-mW argon (488 nm) laser light source. A 585 nm long pass filter was used to collect the emitted red fluorescence. The forward scatter, side scatter, and ethidium bromide fluorescence were simultaneously recorded with 10,000 cells at 300 events per second. The results were later analyzed using cell quest software provided by the same manufacturer. Histogram statistics were used to quantitatively determine the extent of permeabilization.
For orientation: A flow cytometer gives signals particle by particle.

Where a SMILES comes first, the peptide text is derived from it. Where no end group is shown, it is not given here. The star is where a group is joined. Lithocholoyl = C[C@H](CCC(=O)*)[C@H]1CC[C@H]2[C@@H]3CC[C@@H]4C[C@H](O)CC[C@]4(C)[C@H]3CC[C@]12C

“HHYRRRHKSRRRLHH [Peptide sequence, reference compound]”: the “transfection / gene expression (in words)” value in data set [1] is given as “not effective”.

One may read the viability as a per cent measure of how many cells are alive, often set against a control. High values mean better survival, low ones a greater loss of cells. On to `CC(C)C[C@H](NC(=O)[C@H](CCCNC(=N)N)NC(=O)[C@H](CCCNC(=N)N)NC(=O)[C@H](CCCNC(=N)N)NC(=O)[C@H](CO)NC(=O)[C@H](CCCCNC(=O)CC[C@@H](C)[C@H]1CC[C@H]2[C@@H]3CC[C@@H]4C[C@H](O)CC[C@]4(C)[C@H]3CC[C@]12C)NC(=O)[C@H](Cc1c[nH]cn1)NC(=O)[C@H](CCCNC(=N)N)NC(=O)[C@H](CCCNC(=N)N)NC(=O)[C@H](CCCNC(=N)N)NC(=O)[C@H](Cc1ccc(O)cc1)NC(=O)[C@H](Cc1c[nH]cn1)NC(=O)[C@@H](N)Cc1c[nH]cn1)C(=O)N[C@@H](Cc1c[nH]cn1)C(=O)N[C@@H](Cc1c[nH]cn1)C(N)=O` [SSP] (H-HHYRRRHK(Lithocholoyl)SRRRLHH-NH2; N-terminus and C-terminus assumed), for which the viability at 48 h in data set [2] was about 75%. Besides, the “transfection / gene expression (in words)” value in data set [1] is reported as “did not give any gene expression”. In data set [3], the “N/P ratio at which pDNA is condensed completely” value was 3/1. The “cytotoxicity (in words)” value in data set [4] is recorded as “non-toxic”. In addition, the levels of staining is on record as over 85% in data set [5] (5 μM of SSP or above); about 100% in data set [5] (10 μM SSP and above). Further, the “cells stained (ethidium bromide fluorescence)” value in data set [5] (pH 5 and 6, within 5 minutes) was “over 97%”; in data set [5] (pH 5 and 6, within 5 minutes, listed as soluble steroidal peptide), “less than 25%”; in data set [5] (pHs above the pKa of the imidazole ring of histidine (pKa=6.1), pH 7 and 8) it was under 25%.
